Tested on: SARS-CoV-2
Assay: microbe, parasite or virus in culture
Conditions: Severe acute respiratory syndrome coronavirus 2, Vero C1008, 48 h

| SMILES | IC50 | IC50 (read-out: pIC50 (converted)) |
| --- | --- | --- |
| NCCC(=O)N[C@@H](Cc1c[nH]cn1)C(=O)O [CARNOSINE] | > 20 µM | > 20 µM |
| NC(=O)CN1Cc2ccccc2OC1=O [CAROXAZONE] | > 20 µM | > 20 µM |
| CC(C(=O)O)c1ccc2c(c1)[nH]c1ccc(Cl)cc12 (stereo not given) [CARPROFEN] | > 20 µM | > 20 µM |
| OC(CSc1ncnc2[nH]cnc12)CN1CCN(C(c2ccc(F)cc2)c2ccc(F)cc2)CC1 (stereo not given) [CARSATRIN] | > 20 µM | > 20 µM |
| CC(C)(C)NCC(O)COc1cccc2c1CCC(=O)N2 (stereo not given) [CARTEOLOL] | > 20 µM | > 20 µM |
| NS(=O)(=O)c1ccc(C(=O)O)cc1 [CARZENIDE] | > 20 µM | > 20 µM |
| CC(=O)Oc1cc(OC(C)=O)c2c(c1)O[C@H](c1ccc(OC(C)=O)c(OC(C)=O)c1)[C@@H](OC(C)=O)C2 [CATECHIN PENTAACETATE] | > 20 µM | > 20 µM |
| Oc1cc(O)c2c(c1)OC(c1ccc(O)c(O)c1)C(O)C2 (stereo not given) [CATECHIN] | > 20 µM | > 20 µM |
| COc1ccc([C@H](Cc2ccncc2)c2ccccc2)cc1OC1CCCC1 [CDP840] | > 20 µM | > 20 µM |
| COC[C@H](O)Cn1c(=O)cnn(-c2ccc(Cl)c(C(=O)NCC3(O)CCCCCC3)c2)c1=O [CE-224535] | > 20 µM | > 20 µM |
| COc1cc2c(Oc3ccc4[nH]c(C)cc4c3F)ncnc2cc1OCCCN1CCCC1 [CEDIRANIB] | > 20 µM | > 20 µM |
| N[C@@H](C(=O)N[C@@H]1C(=O)N2C(C(=O)O)=C(Cl)CS[C@H]12)c1ccccc1 [CEFACLOR ANHYDROUS] | > 20 µM | > 20 µM |
| Cn1nnnc1SCC1=C(C(=O)O)N2C(=O)[C@@H](NC(=O)[C@H](O)c3ccccc3)[C@H]2SC1 [CEFAMANDOLE] | > 20 µM | > 20 µM |
| Cc1nnc(SCC2=C(C(=O)O)N3C(=O)[C@@H](NC(=O)Cn4cnnn4)[C@H]3SC2)s1 [CEFAZOLIN] | > 20 µM | > 20 µM |
| C=CC1=C(C(=O)O)N2C(=O)[C@@H](NC(=O)/C(=N\OCC(=O)O)c3csc(N)n3)[C@H]2SC1 [CEFIXIME] | > 20 µM | > 20 µM |
| CO[C@@]1(NC(=O)CSCC#N)C(=O)N2C(C(=O)O)=C(CSc3nnnn3C)CS[C@@H]21 [CEFMETAZOLE] | > 20 µM | > 20 µM |
| CCN1CCN(C(=O)N[C@@H](C(=O)N[C@@H]2C(=O)N3C(C(=O)O)=C(CSc4nnnn4C)CS[C@H]23)c2ccc(O)cc2)C(=O)C1=O [CEFOPERAZONE] | > 20 µM | > 20 µM |
| NCc1ccccc1CC(=O)N[C@@H]1C(=O)N2C(C(=O)O)=C(CSc3nnnn3CC(=O)O)CS[C@H]12 [CEFORANIDE] | > 20 µM | > 20 µM |

| SMILES | IC50 | IC50 (read-out: pIC50 (converted)) |
| --- | --- | --- |
| CO/N=C(\C(=O)N[C@@H]1C(=O)N2C(C(=O)O)=C(COC(C)=O)CS[C@H]12)c1csc(N)n1 [CEFOTAXIME] | > 20 µM | > 20 µM |
| CO[C@@]1(NC(=O)C2SC(=C(C(N)=O)C(=O)O)S2)C(=O)N2C(C(=O)O)=C(CSc3nnnn3C)CS[C@@H]21 (stereo not given in full) [CEFOTETAN] | > 20 µM | > 20 µM |
| CN(C)CCn1nnnc1SCC1=C(C(=O)O)N2C(=O)[C@@H](NC(=O)Cc3csc(N)n3)[C@H]2SC1 [CEFOTIAM] | > 20 µM | > 20 µM |
| CO[C@@]1(NC(=O)Cc2cccs2)C(=O)N2C(C(=O)O)=C(COC(N)=O)CS[C@@H]21 [CEFOXITIN] | > 20 µM | > 20 µM |
| COCC1=C(C(=O)OC(C)OC(=O)OC(C)C)N2C(=O)[C@@H](NC(=O)/C(=N\OC)c3csc(N)n3)[C@H]2SC1 (stereo not given in full) [CEFPODOXIME PROXETIL] | > 20 µM | > 20 µM |
| CC(C)(O/N=C(\C(=O)N[C@@H]1C(=O)N2C(C(=O)[O-])=C(C[n+]3ccccc3)CS[C@H]12)c1csc(N)n1)C(=O)O [CEFTAZIDIME] | > 20 µM | > 20 µM |
| CO/N=C(\C(=O)N[C@@H]1C(=O)N2C(C(=O)O)=C(CSc3nc(=O)c(O)nn3C)CS[C@H]12)c1csc(N)n1 [CEFTRIAXONE] | > 20 µM | > 20 µM |
| CO/N=C(\C(=O)N[C@@H]1C(=O)N2C(C(=O)O)=C(COC(N)=O)CS[C@H]12)c1ccco1 [CEFUROXIME] | > 20 µM | > 20 µM |
| Cc1ccc(-c2cc(C(F)(F)F)nn2-c2ccc(S(N)(=O)=O)cc2)cc1 [CELECOXIB] | > 20 µM | > 20 µM |
| CCCC(=O)O[C@H]1CN2CC[C@H](O)[C@@H]2[C@@H](O)[C@@H]1O [CELGOSIVIR] | > 20 µM | > 20 µM |
| CCN(CC)C(=O)Nc1ccc(OCC(O)CNC(C)(C)C)c(C(C)=O)c1 (stereo not given) [CELIPROLOL] | > 20 µM | > 20 µM |
| NC(=O)O[C@@H](Cn1ncnn1)c1ccccc1Cl [CENOBAMATE] | > 20 µM | > 20 µM |
| COc1cc2ncnc(Oc3cccc(NC(=O)Nc4cc(C(C)(C)C(F)(F)F)on4)c3)c2cc1OC [CEP-32496] | > 20 µM | > 20 µM |
| CC[C@H]1CN2CCc3cc(OC)c(OC)cc3[C@@H]2C[C@@H]1C[C@H]1NCCc2cc(O)c(OC)cc21 [CEPHAELINE] | > 20 µM | > 20 µM |
| CC1=C(C(=O)O)N2C(=O)[C@@H](NC(=O)[C@H](N)c3ccccc3)[C@H]2SC1 [CEPHALEXIN ANHYDROUS] | > 20 µM | > 20 µM |
| CCS(=O)(=O)N1CCN(c2ccc(Nc3ncc(C(N)=O)c(NC4CC4)n3)cc2)CC1 [CERDULATINIB] | > 20 µM | > 20 µM |
| Cc1cc(Nc2ncc(Cl)c(Nc3ccccc3S(=O)(=O)C(C)C)n2)c(OC(C)C)cc1C1CCNCC1 [CERITINIB] | > 20 µM | > 20 µM |
